# Patent US20250057164A1, “USE OF ISOXAZOLINECARBOXAMIDE FOR SPROUT INHIBITION” (BAYER AKTIENGESELLSCHAFT, priority 2021, published 2025)
# Test system: stored potato tubers (Solanum tuberosum, variety: Columbia)
# Experiment: Visual assessment of sprout development on stored potato tubers after spray application on a roller table
# Assay type: in vivo
# Procedure: Application was done on a roller table and were applied with a spray application covering the outside of the tubers homogeneously with the spray solution containing with the respective dose of compound of formula (I) and depending on the treatment with the additional MSO (methylated seed oil) as indicated in the following tables. The spray solutions were prepared to match an equivalent of 10 L water per ton potato.
smiles,measurement,setting,value
"C=C[C@]1(C(=O)N[C@H]2CO[C@@H](C(=O)OC)C2)CC(c2cc(F)cc(F)c2)=NO1 (relative stereo) [compound of formula (I), methyl(2R*,4R*)-4-[[(5S)-3-(3,5-difluorophenyl)-5-vinyl-4H-isoxazole-5-carbonyl]amino]tetrahydrofuran-2-carboxylate]",Relative inhibition of potato sprouting,"0.2 g/to, MSO 0.5 L/to, SC 200, 0 DAA",0%
same,Relative inhibition of potato sprouting,"0.2 g/to, MSO 0.5 L/to, SC 200, 71 DAA",67%
same,Relative inhibition of potato sprouting,"2 g/to, MSO 0.5 L/to, SC 200, 0 DAA",0%
same,Relative inhibition of potato sprouting,"2 g/to, MSO 0.5 L/to, SC 200, 71 DAA",73%
same,Relative inhibition of potato sprouting,"2 g/to, no MSO, SC 200, 0 DAA",0%
same,Relative inhibition of potato sprouting,"2 g/to, no MSO, SC 200, 28 DAA",30%
same,Relative inhibition of potato sprouting,"2 g/to, no MSO, SC 200, 71 DAA",18%
same,Relative inhibition of potato sprouting,"20 g/to, MSO 0.5 L/to, SC 200, 0 DAA",0%
same,Relative inhibition of potato sprouting,"20 g/to, MSO 0.5 L/to, SC 200, 71 DAA",93%
same,Relative inhibition of potato sprouting,"20 g/to, no MSO, SC 200, 0 DAA",0%
same,Relative inhibition of potato sprouting,"20 g/to, no MSO, SC 200, 28 DAA",45%
same,Relative inhibition of potato sprouting,"20 g/to, no MSO, SC 200, 71 DAA",30%
same,Relative inhibition of potato sprouting,"200 g/to, MSO 0.5 L/to, SC 200, 0 DAA",0%
same,Relative inhibition of potato sprouting,"200 g/to, MSO 0.5 L/to, SC 200, 71 DAA",95%
